Series [1] in a line: DNDI: Cytotoxicity against L929 mouse fibroblasts, 72 hour. As to conditions: mouse, L929 mouse fibroblasts. Format: toxicity, cell-based.
The test system of a further series is Trypanosoma brucei. The series can be described thus: DNDI: Inhibition of Human African Trypanosomiasis, SBRI 427, in vitro. Format: functional, organism-based. The conditions noted are these: Trypanosoma brucei, SBRI 427; read-out: IC50.
A short description of series [2]: DNDI: Solubility in phosphate buffered saline at pH7.4 measured by nephelometry at room temperature (NEPH-RT). The conditions noted are these: pH 7.4. It counts as physicochemical.
A further series is described as follows: in vitro. The conditions noted are these: mouse, liver microsomes, t (1 / 2). (Liver microsomes are a subcellular fraction often used to study metabolism.)
For series [3] the following is noted: mouse, microsomes, 1 µM.
Description: DNDI: in vitro intrinsic clearance in mouse liver microsomes at a concentration of 1uM
A short description of series [4]: DNDI: Cytotoxicity against L929 mouse fibroblasts, CYTO-SP, 24 hour. As to conditions: mouse, L929 mouse fibroblasts. It counts as toxicity, cell-based.
Series [5] is described as follows: DNDI: Lipophilicity measured in Chromatographic hydrophobicity index (CHI) assay, pH 7.4. It counts as physicochemical. The conditions noted are these: buffer.

The structures appear in SMILES notation. In brackets after ≈: the same amount, converted by molar mass.

Description for in vitro: DNDI: half life in mouse liver microsomes at a concentration of 1uM

A word on the IC50: it is the concentration that gives 50% inhibition. By kinetic solubility is commonly meant the concentration staying in solution when a stock, usually in DMSO, is diluted into the medium. The compound `Cc1ccc(CNC(c2ccccc2)c2nc(Cc3ccccc3)c(N3CCOCC3)o2)cc1` (centres undefined) came in with an IC50 at 72 h in series [1] greater than 10 µg/mL. Also, the IC50 in the series with Trypanosoma brucei is 4.86 µg/mL (≈ 10.7 µM). Further, the solubility (kinetic) in series [2] stood at 6 µM (≈ 2.72 µg/mL).

As a reminder, the half-life is the time in which the quantity being followed falls by half. The low end stands for rapid decline, the high end for slow decline. `CCc1ccccc1N/C(=N\O)c1ccc(OC)cc1`: the half-life at 1 µM in the series “in vitro” was 2 min. Further, the IC50 with Trypanosoma brucei is greater than 5 µg/mL. The compound also came in with a CLint in vitro in series [3] of 397 µL/min/mg. Moreover, the IC50 at 24 h in series [4] was greater than 50 µg/mL.

As usually defined, the chromatographic logD is lipophilicity estimated from chromatographic retention. Take `COc1ccc(/C(=N/O)Nc2cccc(C#N)c2)cc1`: the IC50 at 72 h in series [1] was greater than 10 µg/mL. In addition, the IC50 in the series on Trypanosoma brucei was greater than 5 µg/mL. In addition, the solubility (kinetic) in series [2] stood at 50 µM (≈ 13.4 µg/mL). Further, in series [5], the chromatographic logD came to 2.41.

In the series “in vitro”, `Cc1cccc(C)c1/C(=N/O)NC1CCCCC1` had a half-life at 1 µM of 11 min. Also, the IC50 with Trypanosoma brucei is greater than 5 µg/mL. In series [3], this compound gave a CLint in vitro of 76 µL/min/mg. In addition, the IC50 at 24 h in series [4] is greater than 50 µg/mL.

For the compound `CC(C)(C)c1ccc(Oc2ncccc2/C(=N/O)NC2CCCCC2)cc1`, in series [1], the IC50 at 72 h was greater than 10 µg/mL. The same compound returned a half-life at 1 µM in “in vitro” of 9 min. The IC50 in the series with Trypanosoma brucei was 0.07 µg/mL (≈ 0.19 µM). Besides, the CLint in vitro in series [3] came to 95 µL/min/mg. The solubility (kinetic) in series [2] came out at 13 µM (≈ 4.78 µg/mL).

For `Cc1ccc(-c2nc(CNCCC3CCCN3C)c(C)o2)cc1` (centres undefined), 7.78 µg/mL (≈ 24.8 µM) corresponded to half-maximal inhibition in series [1] (IC50 at 72 h). In the series with Trypanosoma brucei, the IC50 amounted to 0.43 µg/mL (≈ 1.37 µM). This compound also displayed a kinetic solubility in series [2] greater than 200 µM. For the same compound, the chromatographic logD in series [5] is 3.3.

Regarding `Cc1ccc(CNC(c2nc(Cc3ccccc3)c(N3CCOCC3)o2)C2CCCCC2)cc1` (centres undefined), the IC50 at 72 h in series [1] is greater than 10 µg/mL. The compound further displayed a half-life at 1 µM in the series “in vitro” of 4 min. For the same compound, the IC50 with Trypanosoma brucei was 2.45 µg/mL (≈ 5.33 µM). Also, the CLint in vitro in series [3] worked out at 236 µL/min/mg. The same compound displayed a solubility (kinetic) in series [2] of 3 µM (≈ 1.38 µg/mL).

`COc1ccc(/C(=N/O)Nc2cccc(F)c2)cc1` came in with an IC50 at 72 h in series [1] greater than 10 µg/mL. Besides, the half-life at 1 µM in the series “in vitro” was 5.93 min. Further, the IC50 in the series with Trypanosoma brucei worked out at 0.67 µg/mL (≈ 2.57 µM). This compound yielded a CLint in vitro in series [3] of 143.33 µL/min/mg. Moreover, the solubility (kinetic) in series [2] is 50 µM (≈ 13 µg/mL). Further, the chromatographic logD in series [5] is 3.09.

Take `COc1ccc(N/C(=N/O)c2ccccc2-c2ccccc2)cc1`: in the series “in vitro”, the half-life at 1 µM turned out to be 5 min. For the same compound, in the series with Trypanosoma brucei, the IC50 is greater than 5 µg/mL. The compound also gave a CLint in vitro in series [3] of 166 µL/min/mg. In addition, the IC50 at 24 h in series [4] was greater than 50 µg/mL.

Consider `CCCCCC(C)NCc1coc(-c2ccc(OCCC)cc2)n1` (centres undefined), for which the IC50 at 72 h in series [1] was less than 3.13 µg/mL. Further, the half-life at 1 µM in “in vitro” was determined as 27 min. In addition, the IC50 in the series with Trypanosoma brucei was 0.54 µg/mL (≈ 1.63 µM). For the same compound, the CLint in vitro in series [3] was found to be 31 µL/min/mg. Moreover, the IC50 at 24 h in series [4] was determined as 27.5 µg/mL (≈ 83.4 µM).

As for `CCc1ccccc1/C(=N\O)NC1CCCCC1`, the half-life at 1 µM in the series “in vitro” was found to be 7 min. The IC50 with Trypanosoma brucei came to 3.58 µg/mL (≈ 14.5 µM). Moreover, in series [3], the CLint in vitro came to 128 µL/min/mg. In addition, the IC50 at 24 h in series [4] is greater than 50 µg/mL.

Compound `O=C1CCCN1CCCNc1cc(-c2ccccc2)nc2cc(-c3ccc(F)cc3)nn12` came in with an IC50 at 72 h in series [1] greater than 10 µg/mL. In the series on Trypanosoma brucei, the IC50 was greater than 5 µg/mL. This compound registered a solubility (kinetic) in series [2] of 6 µM (≈ 2.58 µg/mL). This compound also had a chromatographic logD in series [5] of 4.77.

For the compound `CCC(C)C(NCc1ccc(C)cc1)c1nc(Cc2ccccc2)c(N2CCOCC2)o1` (centres undefined), in series [1], the IC50 at 72 h is greater than 10 µg/mL. The same compound yielded a half-life at 1 µM in “in vitro” of 2 min. The IC50 in the series with Trypanosoma brucei was found to be 2.61 µg/mL (≈ 6.02 µM). In series [3], the CLint in vitro amounted to 378 µL/min/mg. Further, in series [2], the kinetic solubility worked out at 6 µM (≈ 2.6 µg/mL).

In turn, `CCCCCC(C)NCc1coc(-c2ccc(OCC(C)(C)C)cc2)n1` (centres undefined) returned a 50% inhibitory concentration (IC50) at 72 h in series [1] of 0.65 µg/mL (≈ 1.81 µM). In addition, the half-life at 1 µM in “in vitro” was 70 min. In the series with Trypanosoma brucei, the IC50 was 0.19 µg/mL (≈ 0.53 µM). In addition, the CLint in vitro in series [3] came to 12 µL/min/mg. Moreover, the kinetic solubility in series [2] is 6 µM (≈ 2.15 µg/mL).

In series [1], `CCCCCC(C)NCc1coc(-c2ccc(OCc3ccccc3)cc2)n1` (centres undefined) had an IC50 at 72 h of 1.41 µg/mL (≈ 3.73 µM). The compound also yielded a half-life at 1 µM in “in vitro” of 97 min. For the same compound, the IC50 in the series with Trypanosoma brucei is 0.55 µg/mL (≈ 1.45 µM). Also, in series [3], the CLint in vitro amounted to 9 µL/min/mg. In series [2], this compound gave a solubility (kinetic) of 1 µM (≈ 0.379 µg/mL).

`COc1ccc(N/C(=N/O)c2ccc(OC)cc2)cc1` had a half-life at 1 µM in “in vitro” of 2 min. Besides, in the series on Trypanosoma brucei, the IC50 is greater than 5 µg/mL. The CLint in vitro in series [3] was 376 µL/min/mg. Also, the IC50 at 24 h in series [4] was greater than 50 µg/mL.

`CCC(C)C1C(=O)CC(=O)N1C(=O)OC(C)(C)C` (centres undefined): in series [1], the IC50 at 72 h is greater than 10 µg/mL. For the same compound, in the series on Trypanosoma brucei, the IC50 was greater than 5 µg/mL. This compound returned a kinetic solubility in series [2] greater than 200 µM. This compound also showed a chromatographic logD in series [5] of 4.54.

In series [1], `Fc1cccc(-c2cc3nc(-c4ccccc4)cc(NCCCN4CCCC4)n3n2)c1` registered an IC50 at 72 h of 2.49 µg/mL (≈ 5.99 µM). Moreover, in the series on Trypanosoma brucei, the IC50 is 1.02 µg/mL (≈ 2.45 µM). For the same compound, the kinetic solubility in series [2] came to 3 µM (≈ 1.25 µg/mL). In series [5], this compound displayed a chromatographic logD of 4.79.

Consider `CCCCCOc1ccc(-c2nc(CNC3CCCCCC3)co2)cc1`, for which, in series [1], the IC50 at 72 h was less than 3.13 µg/mL. Further, in “in vitro”, the half-life at 1 µM is 101 min. The IC50 in the series on Trypanosoma brucei is 0.25 µg/mL (≈ 0.701 µM). The compound further gave a CLint in vitro in series [3] of 8 µL/min/mg. In series [4], this compound came in with an IC50 at 24 h of 29.5 µg/mL (≈ 82.8 µM).

`CCCCCC(C)NCc1coc(-c2ccc(C(C)C)cc2)n1` (centres undefined): the IC50 at 72 h in series [1] turned out to be 1.33 µg/mL (≈ 4.23 µM). This compound displayed a half-life at 1 µM in “in vitro” of 24 min. Further, in the series with Trypanosoma brucei, the IC50 came out at 0.6 µg/mL (≈ 1.91 µM). Besides, the CLint in vitro in series [3] is 36 µL/min/mg. Moreover, in series [2], the kinetic solubility came to 3 µM (≈ 0.943 µg/mL).

Values taken from ChEMBL document CHEMBL1857833, “Screening and optimization of specific chemical series against human African Trypanosomiasis (HAT)”.
